The target in one assay is T1, human Nav1.8/b3 (Homo sapiens, UniProt Q9Y5Y9).
T1 construct: expressed in transfected cells; host or cells: CHO
Briefly: Compound Profiling Human NaV1.8/β3 Cell Line—SyncroPatch384PE Assay (automated patch clamp, stably transfected CHO cells). To be noted: Nav1.8/b3 CHO cells, third set of compounds. The assay is classed as cell-based.

The target in another assay is T2, human Nav1.8/β1 (Homo sapiens, UniProt Q9Y5Y9).
T2 construct: host or cells: HEK293
Briefly: Compound Profiling Human NaV1.8/β1 Cell Line—Sophion QPatch II Assay (automated patch clamp, stably transfected HEK293 cells). Format: cell-based. As for the experimental part: Compounds were tested on recombinant human Nav1.8/β1 stably transfected HEK293 (Eurofins, CYL3025, St. Charles, MO) cells using the QPatch II system (Sophion Bioscience A/S, Ballerup—Denmark), an automated patch clamp device. Cells were cultured at 37° C./5% CO2 in DMEM/F-12 supplemented with 10% fetal bovine serum, 1× Non-Essential Amino Acids, and selection antibiotics (0.625 μg/mL Puromycin, 400 μg/mL Geneticin, and 100 μg/mL Hygromycin). One or two days prior to recording, cells were moved to a lower temperature 30° C./5% CO2 incubator to increase surface expression of the channels. On the day of the recordings, cells in culture dishes were washed twice with Ca^2+—Mg^2+ free DPBS and treated with Detachin (Genlantis, San Diego) for 3 minutes and then resuspended in Serum Free Medium (EX-CELL® ACF CHO Medium for Cell Culture (Sigma-Aldrich) supplemented with 0.04 mg/mL soybean trypsin Inhibitor and 25 mM HEPES (all components supplied by Sigma-Aldrich, St. Louis, MO) and allowed to recover for a minimum of 20 minutes in the onboard QStirrer. All experiments were performed at ambient temperature. Intracellular solution contained (mM): CsCl, 50; CsF, 90; MgCl2, 2; EGTA, 5; HEPES, 10; pH adjusted to 7.2 with CsOH. Extracellular solution contained (mM): NaCl, 137; KCl, 4; CaCl2), 3.8; MgCl2, 1; HEPES, 10; Glucose, 10; pH adjusted to 7.4 with NaOH. [LEFT OUT].
Compounds were tested in an interleaved manner across two cohorts of wells to develop an aggregate 8-point concentration response curve. Final concentrations include 0.1% DMSO and 0.03% pluronic Acid. In general, the concentration range spans a range from 0.01-300 nM. Compounds were diluted 1:10 with extracellular solution within their respective cohort. DMSO (0.1% by volume) served as a vehicle control to ascertain assay performance.
(§1) Whole cell patch clamp recordings were conducted according to Sophion standard procedure for QPatch II®. Cells were held at a holding potential of −120 mV. A depolarizing step to 10 mV for 30 ms was applied to elicit inward Na^+ currents. Inter-sweep interval was 15 sec. Following establishment of the whole-cell configuration in extracellular solution, cells were washed twice in extracellular solution containing 0.1% DMSO and 0.03% pluronic acid to stabilize the baseline current. Compounds were then applied by the QPatch II system into each well in an ascending manner within cohort and the current was recorded for five minutes for each concentration. Percent of current remaining was determined by taking the average of the last 5 sweeps within each concentration and normalizing to the latest pre-compound saline period. The potency (IC50) values of the compounds were only assessed against resting state block. Wells whose initial sodium current magnitude were below 2 nA or whole cell resistance fell below 100 MΩ were excluded from analysis.
as §1, with “MO” for “MΩ”, “analysis. […]” for “analysis.”

[1] abbreviates: P1 (IC50, resting state block), P1 measurement, resting state block, holding potential −120 mV.
Where [2] appears, read: P2 (IC50, inactivated state block), P2 measurement, inactivated state block, inactivation step −35 mV 10 sec.
The mark [3] stands for this setting: P1, resting state block, Nav1.8/β1 HEK293 cells, holding potential −120 mV, first set of compounds, read-out: P1 (IC50, resting state block).

Structures are written as SMILES. pIC50: −log10 of the molar value. Where two headings read alike, the source gives them in different places.

T2 sequence (Q9Y5Y9 whole entry): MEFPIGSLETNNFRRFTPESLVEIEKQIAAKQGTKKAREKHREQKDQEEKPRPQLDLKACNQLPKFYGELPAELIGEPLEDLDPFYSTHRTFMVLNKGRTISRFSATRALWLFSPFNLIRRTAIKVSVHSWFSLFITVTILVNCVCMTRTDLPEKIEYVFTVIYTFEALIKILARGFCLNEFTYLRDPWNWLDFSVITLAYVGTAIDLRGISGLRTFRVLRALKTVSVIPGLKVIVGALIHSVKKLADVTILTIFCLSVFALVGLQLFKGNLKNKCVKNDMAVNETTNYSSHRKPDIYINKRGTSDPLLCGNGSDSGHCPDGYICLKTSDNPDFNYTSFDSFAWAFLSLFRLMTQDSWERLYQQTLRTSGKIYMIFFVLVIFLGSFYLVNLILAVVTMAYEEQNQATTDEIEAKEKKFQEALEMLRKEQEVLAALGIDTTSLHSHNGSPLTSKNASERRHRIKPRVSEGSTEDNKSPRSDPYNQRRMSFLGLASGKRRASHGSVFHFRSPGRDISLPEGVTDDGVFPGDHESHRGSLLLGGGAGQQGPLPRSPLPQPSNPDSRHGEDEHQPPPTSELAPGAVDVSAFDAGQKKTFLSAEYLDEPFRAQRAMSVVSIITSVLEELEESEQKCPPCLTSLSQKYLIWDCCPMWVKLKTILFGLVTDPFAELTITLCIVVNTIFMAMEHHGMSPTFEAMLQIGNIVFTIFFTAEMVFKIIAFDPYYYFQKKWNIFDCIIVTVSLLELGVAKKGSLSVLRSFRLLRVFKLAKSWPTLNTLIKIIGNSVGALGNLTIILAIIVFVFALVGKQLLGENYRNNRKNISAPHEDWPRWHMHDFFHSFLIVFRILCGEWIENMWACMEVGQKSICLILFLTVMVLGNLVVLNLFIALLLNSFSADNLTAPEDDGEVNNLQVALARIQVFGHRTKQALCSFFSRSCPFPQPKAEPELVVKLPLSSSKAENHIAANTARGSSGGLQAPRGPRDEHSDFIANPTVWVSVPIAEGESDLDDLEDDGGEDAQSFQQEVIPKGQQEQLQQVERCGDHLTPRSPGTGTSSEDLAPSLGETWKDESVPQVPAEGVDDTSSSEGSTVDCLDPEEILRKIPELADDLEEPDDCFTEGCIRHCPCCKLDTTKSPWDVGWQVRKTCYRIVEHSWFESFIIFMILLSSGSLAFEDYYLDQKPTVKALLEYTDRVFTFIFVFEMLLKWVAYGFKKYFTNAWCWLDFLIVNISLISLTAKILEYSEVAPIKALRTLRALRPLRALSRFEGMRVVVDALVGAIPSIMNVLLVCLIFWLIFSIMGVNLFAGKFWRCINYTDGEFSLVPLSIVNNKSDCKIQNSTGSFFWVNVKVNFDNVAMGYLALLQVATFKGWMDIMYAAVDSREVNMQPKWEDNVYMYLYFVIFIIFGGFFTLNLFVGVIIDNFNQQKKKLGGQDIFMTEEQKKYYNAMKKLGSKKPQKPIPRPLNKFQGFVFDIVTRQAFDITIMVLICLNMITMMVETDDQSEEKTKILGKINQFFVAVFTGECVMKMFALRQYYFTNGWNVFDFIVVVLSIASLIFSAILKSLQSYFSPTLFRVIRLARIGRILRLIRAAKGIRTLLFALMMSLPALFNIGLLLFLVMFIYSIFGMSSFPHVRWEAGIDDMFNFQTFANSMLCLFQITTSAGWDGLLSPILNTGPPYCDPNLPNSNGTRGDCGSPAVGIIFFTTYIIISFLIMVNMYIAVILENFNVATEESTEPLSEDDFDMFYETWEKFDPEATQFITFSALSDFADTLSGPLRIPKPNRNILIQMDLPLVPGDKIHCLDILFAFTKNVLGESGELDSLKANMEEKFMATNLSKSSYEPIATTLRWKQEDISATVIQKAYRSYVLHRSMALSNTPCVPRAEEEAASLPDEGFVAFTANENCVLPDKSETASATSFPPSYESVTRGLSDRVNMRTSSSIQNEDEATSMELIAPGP
T2 sequence (Q07699 19-218 partner): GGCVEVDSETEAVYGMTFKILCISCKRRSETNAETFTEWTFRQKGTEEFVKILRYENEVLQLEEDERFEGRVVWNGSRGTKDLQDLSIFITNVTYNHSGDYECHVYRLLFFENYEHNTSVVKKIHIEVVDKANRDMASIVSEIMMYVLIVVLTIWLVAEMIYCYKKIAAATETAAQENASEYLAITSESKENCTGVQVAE
T1 sequence (Q9Y5Y9 whole entry): as the sequence (Q9Y5Y9 whole entry) above
T1 sequence (Q9NY72 23-215 partner): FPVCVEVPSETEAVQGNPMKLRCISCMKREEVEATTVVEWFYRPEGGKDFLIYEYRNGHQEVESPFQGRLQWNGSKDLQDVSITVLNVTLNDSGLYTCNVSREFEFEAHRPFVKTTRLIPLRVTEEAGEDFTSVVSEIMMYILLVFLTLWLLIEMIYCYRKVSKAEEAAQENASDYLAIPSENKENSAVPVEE

Turning to `Cc1nc(F)ccc1Oc1ncc(C2CCCC2)c(C)c1C(=O)Nc1cccc([S@](C)(=N)=O)c1` [Example 87C], the pIC50 at human Nav1.8/b3 (setting [1]), on human Nav1.8/b3 (setting [2]) and against human Nav1.8/β1 was 7.30 to 8.30 each time.

For `Cc1nc(F)ccc1Oc1ncc(C2CCCC2)c(C)c1C(=O)Nc1ccnc([S@](C)(=N)=O)c1` [Example 86C], the pIC50 against human Nav1.8/b3 (setting [1]), on human Nav1.8/b3 (setting [2]) and against human Nav1.8/β1 was 7.30 to 8.30 in each case. For the compound `Cc1nc(F)ccc1Oc1ncc(C(F)(F)F)c(C)c1C(=O)Nc1ccc(F)c(S(C)(=O)=NCCN)c1` (centres unmarked) [Example 88C], the pIC50 was over 8.30 against human Nav1.8/b3 (setting [1]), over 8.30 at human Nav1.8/b3 (setting [2]) and 7.30 to 8.30 against human Nav1.8/β1. For the compound `COc1cc(Br)ccc1Oc1cc(C(F)(F)F)c(Cl)cc1C(=O)Nc1ccnc([S@](C)(=N)=O)c1` [Example 11A, (R)-2-(4-bromo-2-methoxyphenoxy)-5-chloro-N-(2-(S-methylsulfonimidoyl)pyridin-4-yl)-4-(trifluoromethyl)benzamide], the pIC50 at human Nav1.8/β1 (setting [3]) is over 8.30. Same read-out and setting: the same measure for `Cc1cc(F)ncc1Oc1cc(C(F)(F)F)c(Cl)cc1C(=O)Nc1ccnc([S@@](C)(=N)=O)c1` [Example 19A]: under 6.70. On to `Cc1nc(F)ccc1Oc1ncc(C(F)(F)F)c(C)c1C(=O)Nc1cccc(S(=O)(=O)CCCO)c1` [Example 70C], for which, on human Nav1.8/β1, the pIC50 is 6.70 to 7.00. Still for that read-out and setting: for `COc1cc(C#N)ccc1Oc1cc(C(F)(F)F)c(Cl)cc1C(=O)Nc1cccc([S@](C)(=N)=O)c1` [Example 27A] the value was under 6.70. Take `Cc1cc(F)ncc1Oc1cc(C(F)(F)F)c(Cl)cc1C(=O)Nc1ccc(F)c([S@@](C)(=N)=O)c1` [Example 23A]: the pIC50 at human Nav1.8/β1 (setting [3]) was under 6.70. Turning to `COc1cc(C#N)ccc1Oc1cc(C(F)(F)F)c(Cl)cc1C(=O)Nc1ccnc([S@](C)(=N)=O)c1` [Example 12A, (R)-5-chloro-2-(4-cyano-2-methoxyphenoxy)-N-(2-(S-methylsulfonimidoyl)pyridin-4-yl)-4-(trifluoromethyl)benzamide], the pIC50 on human Nav1.8/β1 is 7.30 to 8.30. Take `Cc1cc(F)ncc1Oc1cc(C(F)(F)F)c(Cl)cc1C(=O)Nc1cccc([S@](C)(=N)=O)c1` [Example 22A]: at human Nav1.8/β1 (setting [3]), the negative logarithm of the IC50 (pIC50) was 7.00 to 7.30. Still for that read-out and setting: the same measure for `Cc1cc(F)ncc1Oc1cc(C(F)(F)F)c(Cl)cc1C(=O)Nc1cccc([S@@](C)(=N)=O)c1` [Example 21A]: 6.70 to 7.00.

The values are drawn from patent US20260356804A1, “SODIUM CHANNEL BLOCKING COMPOUNDS, DERIVATIVES THEREOF, AND METHODS OF THEIR USE” (LATIGO BIOTHERAPEUTICS, INC., priority 2022, published 2026).
